Tests used:
GSA subunit = GSA subunit (Homo sapiens, UniProt P63092); conditions: Hohenegger, et al., 1998; cited from earlier work
[1] = test system: CCL3 and CCL4 expression in OPM2 cells; assay: Real-time RT-PCR of FGF2/FGFR3-induced CCL3 and CCL4 expression; type: cell-based; conditions: NF449 one hour before FGF2, FIG. 3b
Experimental: FIG. 3, in accordance with an embodiment herein, depicts 4,4′,4″,4′″-[carbonyl-bis[imino-5,1,3-benzenetriyl bis-{carbonylimino}]]tetrakis-{benzene-1,3-disulfonic acid} inhibits FGF2/FGFR3 signaling in MM cell lines OPM2 and KMS11. (a) KMS11 and OPM2 cells were serum-starved for 12 hours, treated with 4,4′,4″,4′″-[carbonyl-bis[imino-5,1,3-benzenetriyl bis-{carbonylimino}]]tetrakis-{benzene-1,3-disulfonic acid} for one hour before the treatment with FGF2 and the levels of ERK MAP kinase phosphorylation were determined by western blotting with the P-ERK1/2(Thr^202/Tyr^204) antibody. As a loading control, the membranes were reprobed with antibody recognizing ERK regardless of its phosphorylation. Note the FGF2-mediated ERK phosphorylation is inhibited by 4,4′,4″,4′″-[carbonyl-bis[imino-5,1,3-benzenetriyl bis-{carbonylimino}]]tetrakis-{benzene-1,3-disulfonic acid} in both KMS11 and OPM2 cells. (b) The OPM2 cells were serum starved for 12 hours, pre-treated with 4,4′,4″,4′″-[carbonyl-bis[imino-5,1,3-benzenetriyl bis-{carbonylimino}]]tetrakis-{benzene-1,3-disulfonic acid} for one hour before FGF2 treatment, and analyzed for CCL3 and CCL4 expression by real-time RT-PCR as described herein. The results are expressed as the fold difference relative to control (2^ddCt). Note the FGF2-mediated induction of CCL3 and CCL4 that is inhibited by 4,4′,4″,4′″-[carbonyl-bis[imino-5,1,3-benzenetriyl bis-{carbonylimino}]]tetrakis-{benzene-1,3-disulfonic acid}. The data represent two independent samples, each run as a technical duplicate, with the indicated range. The results are representative for three experiments.
Total RNA was isolated using the RNeasy Mini Kit (Qiagene, Valencia, Calif.) and poly-dT-primed cDNA was synthesized from 3 μg of RNA using Omniscript RT kit (Qiagene). Real-time RT-PCRs were carried out as described in detail elsewhere, using Dynamo SYBR Green qPCR chemistry (Finnzymes, Espoo, Finland). The PCR primers were the following (5′ to 3′; product size): CCL3 (SEQ. ID. NO.: 1 and SEQ. ID. NO.: 2), 192 bp; CCL4 (SEQ. ID, NO.: 3 and SEQ. ID. NO.: 4), 214 bp; ACTIN (SEQ. ID. NO.: 5 and SEQ. ID. NO.: 6), 245 bp. The results are expressed as fold difference relative to control (2^ddCt).
Since MM represents another area of pathological FGFR3 signaling in viva, the inventors evaluated whether NF449 inhibits FGFR3 signaling in KMS11 and OPM2 MM cell lines. OPM2 and KMS11 cells overexpress FGFR3 carrying the strongly activating mutations Y373C or K650E and thus serve as an in vitro model for oncogenic FGFR3 signaling in MM [14]. […] As the CCL3 ([…]) and CCL4 (MIP-1β) chemokines were previously identified as transcriptional targets of FGFR3 signaling in MM [16], the inventors determined the effect of NF449 on the FGF2/FGFR3-induced expression of CCL3 and CCL4.

[2] = listed as 4,4′,4″,4′″-[carbonyl-bis[imino-5,1,3-benzenetriyl bis-{carbonylimino}]]tetrakis

GSA subunit, sequence (P63092 whole entry): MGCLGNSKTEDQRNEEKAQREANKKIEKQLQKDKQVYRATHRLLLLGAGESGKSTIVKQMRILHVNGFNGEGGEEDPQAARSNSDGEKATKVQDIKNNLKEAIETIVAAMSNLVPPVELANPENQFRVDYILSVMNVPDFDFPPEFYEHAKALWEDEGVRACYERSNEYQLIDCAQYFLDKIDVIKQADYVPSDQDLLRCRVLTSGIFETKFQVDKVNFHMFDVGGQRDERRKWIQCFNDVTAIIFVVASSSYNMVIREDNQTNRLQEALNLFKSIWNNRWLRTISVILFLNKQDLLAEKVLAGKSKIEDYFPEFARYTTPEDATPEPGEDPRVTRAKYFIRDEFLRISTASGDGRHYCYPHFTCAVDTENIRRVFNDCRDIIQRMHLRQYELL

Compound: O=C(Nc1cc(C(=O)Nc2ccc(S(=O)(=O)O)cc2S(=O)(=O)O)cc(C(=O)Nc2ccc(S(=O)(=O)O)cc2S(=O)(=O)O)c1)Nc1cc(C(=O)Nc2ccc(S(=O)(=O)O)cc2S(=O)(=O)O)cc(C(=O)Nc2ccc(S(=O)(=O)O)cc2S(=O)(=O)O)c1 [NF449, 4,4′,4″,4′″-[carbonyl-bis[imino-5,1,3-benzenetriylbis-{carbonylimino}]]tetrakis-{benzene-1,3-disulfonic acid}]
- concentration needed to inhibit GSA (GSA subunit): 0.14 µM
- FGF2-mediated upregulation of CCL3 transcripts [1]: significantly blocked
- FGF2-mediated upregulation of CCL4 transcripts [1]: significantly blocked
- FGF2-mediated upregulation of CCL3 transcripts [1, 2]: inhibited
- FGF2-mediated upregulation of CCL4 transcripts [1, 2]: inhibited

Source: US20110166223A1, “METHODS OF INHIBITING FGFR3 SIGNALING” (CEDARS-SINAI MEDICAL CENTER, priority 2008, published 2011)
